Laboratory results as given in patent publication US11684611B2, “Compounds for treating diseases associated with a mitochondrial dysfunction” (Amabiotics, priority 2016, dated 2023).

Tested on: rat primary dopaminergic neurons (TH positive neurons)
Assay: Neuroprotective effect on rat primary cultures of dopaminergic neurons injured by 6-OHDA (count of TH positive neurons)
Format: cell-based
Settings: for survival of primary dopaminergic neuron culture (TH positive neurons), % of control: p<0.05 vs 6-OHDA
Description: Accordingly, this study investigates the effect of queuine on rat primary mesencephalic cultures injured by exposure to 6-OHDA.
Rat dopaminergic neurons are cultured as described by Schinelli et al. (1988) J. Neurochem. 50:1900-1907.
Briefly, pregnant female rats (Wistar rats; Janvier) at 15 days of gestation are killed by cervical dislocation and the fetuses are removed from the uterus. The embryonic midbrains is removed and placed in ice-cold Leibovitz medium (L15; PanBiotech) containing 2% of Penicillin-Streptomycin (PS; PanBiotech) and 1% of bovine serum albumin (BSA; PanBiotech). Only the ventral portions of the mesencephalic flexure is used for cell preparations as this is the region of the developing brain rich in dopaminergic neurons. The midbrain is dissociated by trypsinisation for 20 min at 37° C. (Trypsin EDTA 1X; PanBiotech). The reaction is stopped by the addition of Dulbecco's modified Eagle's medium (DMEM; PanBiotech) containing DNAse I grade II (0.1 mg/mL; Roche Diagnostic) and 10% of fetal calf serum (FCS; Invitrogen). The cells are mechanically dissociated by 3 passages through a 10 ml pipette. The dissociated cells are then centrifuged at 180×g for 10 min at 4° C. on a layer of BSA (3.5%) in L15 medium. The supernatant is discarded and the pelleted cells are re-suspended in a culture medium consisting of Neurobasal (Invitrogen, Ref: 21103, Batch: 1725098) supplemented with B27 (2%; Invitrogen, ref: 17504), L-glutamine (2 mM; PanBiotech, Ref: P04-80100) and 2% of PS, 10 ng/mL of BDNF (PanBiotech, Ref: CB-1115002) and 1 ng/mL of GDNF (PanBiotech, Ref: CB-1116001). Viable cells are counted in a Neubauer cytometer using the trypan blue exclusion test. The cells are then seeded at a density of 40 000 cells/well in 96 well-plates pre-coated with poly-D-lysine (Greiner) and are cultured at 37° C. in a humidified air (95%)/CO2 (5%) atmosphere. Half of the medium is changed every 2 days with fresh medium. In these conditions, after 5 days of culture, astrocytes are present in the culture and release growth factor allowing neurons differentiation. Five to six percent of the neuronal cell population are dopaminergic neurons.
Each condition is replicated in six wells of the 96-wells culture plates. 1.4. End Point Evaluation: Determination of the Total Number of Dopaminergic Neurons
At the end of the incubation time, the cells are fixed by a solution of 4% paraformaldehyde for 20 min at room temperature. The cells are then permeabilized and non-specific sites are blocked with a solution of phosphate buffered saline (PBS; PanBiotech) containing 0.1% of saponin (Sigma) and 1% fetal calf serum (FCS) for 15 min at room temperature. Eventually, the cells are incubated with a monoclonal anti-Tyrosine Hydroxylase (TH) mouse antibody (Sigma) in PBS containing 1% FCS and 0.1% saponin, for 2 h at room temperature. The anti-TH antibody targets dopaminergic neurons.
The nuclei of the cells is stained by a fluorescent marker (Hoechst solution, SIGMA) in the same solution.
For each condition, 20 pictures per well are taken using InCell Analyzer™ 2000 (GE Healthcare) with 20× magnification. Images of each culture well are also taken.
The analysis of the cell bodies of TH positive neurons are performed using Developer software (GE healthcare). A total of 6 data per experimental condition is provided. All values are expressed as mean±s.e. mean. For statistical analyses ANOVA is performed followed by Dunnett's test.

NCCc1cc(O)c(O)cc1O [6-OHDA, 6-hydroxydopamine, reference compound]
effect on number of TH positive neurons (6-OHDA alone at 20 μM for 48 h, FIG. 1 and FIG. 2): large and significant decrease

Nc1nc2[nH]cc(CN[C@H]3C=C[C@H](O)[C@@H]3O)c2c(=O)[nH]1 [queuine, 7-(3,4-trans-4,5-cis-dihydroxy-1-cyclopenten-3-ylaminomethyl)-7-deazaguanine]
effect on 6-OHDA-induced neurotoxicity (preliminary results, rat primary mesencephalic cultures): neuroprotective effect
survival of primary dopaminergic neuron culture (TH positive neurons), % of control (queuine 0.3 μM added 6 days before 6-OHDA intoxication (20 μM, 48 h), FIG. 2): 80.47 % of the control
survival of primary dopaminergic neuron culture (TH positive neurons), % of control (queuine 1 μM added 1 day (24 hours) before 6-OHDA intoxication (20 μM, 48 h), FIG. 1): 81.33 % of the control

B1: BDNF: brain-derived neurotrophic factor, obtained from PanBiotech, used as positive control (protein, UniProt P23560 19-247, looked up)
Neurotrophic factor BDNF …: APMKEANIRGQGGLAYPGVRTHGTLESVNGPKAGSRGLTSLADTFEHVIEELLDEDQKVRPNEENNKDADLYTSRVMLSSQVPLEPPLLFLLEEYKNYLDAANMSMRVRRHSDPARRGELSVCDSISEWVTAADKKTAVDMSGGTVTVLEKVPVSKGQLKQYFYETKCNPMGYTKEGCRGIDKRHWNSQCRTTQSYVRALTMDSKKRIGWRFIRIDTSCVCTLTIKRGR
survival of primary dopaminergic neuron culture (TH positive neurons), % of control (BDNF 50 ng/mL applied 1 day before 6-OHDA intoxication (20 μM, 48 h), FIG. 1): 80.80 % of the control
survival of primary dopaminergic neuron culture (TH positive neurons), % of control (BDNF 50 ng/mL applied 6 days before 6-OHDA intoxication (20 μM, 48 h), FIG. 2): 83.44 % of the control
